System: T cells
Settings: whole blood collected in EDTA versus heparin as anticoagulant, 37° C., activated with PDBu/ionomycin
Description: In this example, whole blood was collected from a donor in collection tubes containing heparin (curve 1) or EDTA (curve 2), respectively, as the anticoagulants. Blood samples were then incubated at 37° C. and activated with phorbol ester and a calcium ionophore (PDBu/I, phorbol-12,13-dibutyrate/ionomycin).

How did the “responsiveness of T-cells (level of inducible actin polymerization by PDBu/I)” value turn out when `O=C(O)CN(CCN(CC(=O)O)CC(=O)O)CC(=O)O` [EDTA] was run?
Its value is “dramatic decrease in the responsiveness of T-cells”.
